Source: US10975013B2, “Method for producing vanillin” (T. HASEGAWA CO., LTD., priority 2018, dated 2021)

How the values were obtained:
Type in all cases: physicochemical
[1] = Solubility of vanillin in various solvents at 25° C.
[2] = Solubility of vanillin in solvent-heptane mixed solvents (1:1) at 25° C.
[3] = Solubility of vanillin in dibutyl maleate-solvent mixed solvents (1:1) at 25° C.

SMILES: COc1cc(C=O)ccc1O [vanillin]
- Solubility (mass %) of vanillin at 25° C. ([1]; solvent 1-Chlorotetradecane): 0.4% mass %
- Solubility (mass %) of vanillin at 25° C. ([1]; solvent Benzyl benzoate): 6.6% mass %
- Solubility (mass %) of vanillin at 25° C. ([1]; solvent Dibenzyl ether): 5.5% mass %
- Solubility (mass %) of vanillin at 25° C. ([1]; solvent Dibutyl adipate): 10.9% mass %
- Solubility (mass %) of vanillin at 25° C. ([1]; solvent Dibutyl fumarate): 9.2% mass %
- Solubility (mass %) of vanillin at 25° C. ([1]; solvent Dibutyl maleate): 11.3% mass %
- Solubility (mass %) of vanillin at 25° C. ([1]; solvent Dibutyl succinate): 15.4% mass %
- Solubility (mass %) of vanillin at 25° C. ([1]; solvent Diethyl phthalate): 14.8% mass %
- Solubility (mass %) of vanillin at 25° C. ([1]; solvent Diethyl sebacate): 13.6% mass %
- Solubility (mass %) of vanillin at 25° C. ([1]; solvent Diisobutyl adipate): 7.7% mass %
- Solubility (mass %) of vanillin at 25° C. ([1]; solvent Ethyl laurate): 3.1% mass %
- Solubility (mass %) of vanillin at 25° C. ([1]; solvent Isopropyl myristate): 2.0% mass %
- Solubility (mass %) of vanillin at 25° C. ([1]; solvent Tetraglyme): 31.3% mass %
- Solubility (mass %) of vanillin at 25° C. ([1]; solvent Tripropionin): 18.1% mass %
- Solubility (mass %) of vanillin at 25° C. ([1]; solvent n-Pentadecane): 0.05% mass %
- Solubility (mass %) of vanillin at 25° C. ([1]; solvent γ-Undecalactone): 16.2% mass %
- Solubility (mass %) of vanillin at 25° C. ([1]; solvent δ-Decalactone): 17.4% mass %
- Solubility (mass %) of vanillin in solvent-heptane mixed solvent (1:1) at 25° C. ([2]; Benzyl benzoate-heptane (1:1)): 1.2% mass %
- Solubility (mass %) of vanillin in solvent-heptane mixed solvent (1:1) at 25° C. ([2]; Dibenzyl ether-heptane (1:1)): 0.9% mass %
- Solubility (mass %) of vanillin in solvent-heptane mixed solvent (1:1) at 25° C. ([2]; Dibutyl adipate-heptane (1:1)): 1.4% mass %
- Solubility (mass %) of vanillin in solvent-heptane mixed solvent (1:1) at 25° C. ([2]; Dibutyl fumarate-heptane (1:1)): 1.0% mass %
- Solubility (mass %) of vanillin in solvent-heptane mixed solvent (1:1) at 25° C. ([2]; Dibutyl succinate-heptane (1:1)): 1.7% mass %
- Solubility (mass %) of vanillin in solvent-heptane mixed solvent (1:1) at 25° C. ([2]; Diethyl phthalate-heptane (1:1)): Oiling out
- Solubility (mass %) of vanillin in solvent-heptane mixed solvent (1:1) at 25° C. ([2]; Diethyl sebacate-heptane (1:1)): 1.6% mass %
- Solubility (mass %) of vanillin in solvent-heptane mixed solvent (1:1) at 25° C. ([2]; Diisobutyl adipate-heptane (1:1)): 1.4% mass %
- Solubility (mass %) of vanillin in solvent-heptane mixed solvent (1:1) at 25° C. ([2]; Ethyl laurate-heptane (1:1)): 0.6% mass %
- Solubility (mass %) of vanillin in solvent-heptane mixed solvent (1:1) at 25° C. ([2]; Isopropyl myristate-heptane (1:1)): 0.3% mass %
- Solubility (mass %) of vanillin in solvent-heptane mixed solvent (1:1) at 25° C. ([2]; Tetraglyme-heptane (1:1)): Oiling out
- Solubility (mass %) of vanillin in solvent-heptane mixed solvent (1:1) at 25° C. ([2]; Tripropionin-heptane (1:1)): Oiling out
- Solubility (mass %) of vanillin in solvent-heptane mixed solvent (1:1) at 25° C. ([2]; dibutyl maleate-Heptane (1:1)): 1.7% mass %
- Solubility (mass %) of vanillin in solvent-heptane mixed solvent (1:1) at 25° C. ([2]; γ-Undecalactone-heptane (1:1)): 3.6% mass %
- Solubility (mass %) of vanillin in solvent-heptane mixed solvent (1:1) at 25° C. ([2]; δ-Decalactone-heptane (1:1)): Oiling out
- Solubility (mass %) of vanillin in dibutyl maleate-solvent mixed solvent (1:1) at 25° C. ([3]; dibutyl maleate-Cyclohexane (1:1)): 2.1% mass %
- Solubility (mass %) of vanillin in dibutyl maleate-solvent mixed solvent (1:1) at 25° C. ([3]; dibutyl maleate-Heptane (1:1)): 1.7% mass %
- Solubility (mass %) of vanillin in dibutyl maleate-solvent mixed solvent (1:1) at 25° C. ([3]; dibutyl maleate-Hexane (1:1)): 1.7% mass %
- Solubility (mass %) of vanillin in dibutyl maleate-solvent mixed solvent (1:1) at 25° C. ([3]; dibutyl maleate-Isooctane (1:1)): 1.8% mass %
- Solubility (mass %) of vanillin in dibutyl maleate-solvent mixed solvent (1:1) at 25° C. ([3]; dibutyl maleate-Petroleum ether (1:1)): 1.6% mass %
- Solubility (mass %) of vanillin in dibutyl maleate-solvent mixed solvent (1:1) at 25° C. ([3]; dibutyl maleate-Toluene (1:1)): 5.5% mass %
